According to ChEMBL document CHEMBL3525908, “Chronic doxorubicin cardiotoxicity modulates cardiac cytochrome P450-mediated arachidonic acid metabolism in rats” (Drug Metab Dispos, 2012):

Columns and labels:
Rattus norvegicus [1] = assay: Cardiotoxicity in Sprague-Dawley rat assessed as increase in CYP4A1 gene expression level administered as cumulative dose of 15 mg/kg, ip divided into 6 injections for 2 weeks followed by compound washout period of 14 days by RT-PCR analysis relative to control; type: toxicity, organism-based; parameters: dose 15 mg/kg, route intraperitoneal; details: in vivo, 336 h
H9c2 = assay: Cytotoxicity against rat H9c2 cells assessed as reduction in BNP mRNA expression at 1 uM after 6 hrs in presence of t-AUCB; type: cell-based; details: h9c2, 6 h
CYP1B1 = assay: Toxicity in Sprague-Dawley rat assessed as induction of CYP1B1 gene expression in kidney administered as cumulative dose of 15 mg/kg, ip divided into 6 injections for 2 weeks followed by compound washout period of 14 days by RT-PCR analysis relative to control; type: organism-based; parameters: dose 15 mg/kg, route intraperitoneal
Rattus norvegicus [2] = assay: Cardiotoxicity in Sprague-Dawley rat assessed as increase in CYP1A1 gene expression level administered as cumulative dose of 15 mg/kg, ip divided into 6 injections for 2 weeks followed by compound washout period of 14 days by RT-PCR analysis relative to control; type: toxicity, organism-based; parameters: dose 15 mg/kg, route intraperitoneal; details: in vivo, 336 h
Rattus norvegicus [3] = assay: Cardiotoxicity in Sprague-Dawley rat assessed as increase in beta-MHC gene expression level administered as cumulative dose of 15 mg/kg, ip divided into 6 injections for 2 weeks followed by compound washout period of 14 days by RT-PCR analysis relative to control; type: toxicity, organism-based; parameters: dose 15 mg/kg, route intraperitoneal; details: 336 h
Rattus norvegicus [4] = assay: Toxicity in Sprague-Dawley rat assessed as CYP2E1 gene expression in kidney administered as cumulative dose of 15 mg/kg, ip divided into 6 injections for 2 weeks followed by compound washout period of 14 days by RT-PCR analysis relative to control; type: organism-based; parameters: dose 15 mg/kg, route intraperitoneal; details: in vivo, 336 h
Rattus norvegicus [5] = assay: Cardiotoxicity in Sprague-Dawley rat assessed as increase in sEH activity in heart cytosol administered as cumulative dose of 15 mg/kg, ip divided into 6 injections for 2 weeks followed by compound washout period of 14 days by RT-PCR analysis relative to control; type: toxicity, organism-based; parameters: dose 15 mg/kg, route intraperitoneal; details: 336 h
Rattus norvegicus [6] = assay: Induction of omega-1 hydroxylase-mediated arachidonic acid metabolism in Sprague-Dawley rat heart microsomes assessed as 19-HETE formation administered as cumulative dose of 15 mg/kg, ip divided into 6 injections for 2 weeks followed by compound washout period of 14 days by LC-ESI-MS analysis relative to control; type: ADME, organism-based; parameters: dose 15 mg/kg, route intraperitoneal; details: 336 h
Rattus norvegicus [7] = assay: Cardiotoxicity in Sprague-Dawley rat assessed as increase in ANP gene expression level administered as cumulative dose of 15 mg/kg, ip divided into 6 injections for 2 weeks followed by compound washout period of 14 days by RT-PCR analysis relative to control; type: toxicity, organism-based; parameters: dose 15 mg/kg, route intraperitoneal; details: 336 h
Rattus norvegicus [8] = assay: Toxicity in Sprague-Dawley rat assessed as inhibition of CYP2B2 gene expression in liver administered as cumulative dose of 15 mg/kg, ip divided into 6 injections for 2 weeks followed by compound washout period of 14 days by RT-PCR analysis relative to control; type: organism-based; parameters: dose 15 mg/kg, route intraperitoneal; details: in vivo, 336 h
Rattus norvegicus [9] = assay: Toxicity in Sprague-Dawley rat assessed as CYP4F1 gene expression in liver administered as cumulative dose of 15 mg/kg, ip divided into 6 injections for 2 weeks followed by compound washout period of 14 days by RT-PCR analysis relative to control; type: organism-based; parameters: dose 15 mg/kg, route intraperitoneal; details: in vivo, 336 h
CYP4F1 = assay: Cardiotoxicity in Sprague-Dawley rat assessed as increase in CYP4F1 gene expression level administered as cumulative dose of 15 mg/kg, ip divided into 6 injections for 2 weeks followed by compound washout period of 14 days by RT-PCR analysis relative to control; type: toxicity, organism-based; parameters: dose 15 mg/kg, route intraperitoneal; details: heart
Rattus norvegicus [10] = assay: Cardiotoxicity in Sprague-Dawley rat assessed as increase in CYP2J3 gene expression level administered as cumulative dose of 15 mg/kg, ip divided into 6 injections for 2 weeks followed by compound washout period of 14 days by RT-PCR analysis relative to control; type: toxicity, organism-based; parameters: dose 15 mg/kg, route intraperitoneal; details: in vivo, 336 h

COc1cccc2c1C(=O)c1c(O)c3c(c(O)c1C2=O)C[C@@](O)(C(=O)CO)C[C@@H]3O[C@H]1C[C@H](N)[C@H](O)[C@H](C)O1 [DOXORUBICIN]
Activity (Rattus norvegicus [1]): Non-toxic | Activity (H9c2): Toxic | fold induction at 336 h (CYP1B1): 1.8 | Activity (Rattus norvegicus [2]): Non-toxic | fold induction at 15 mg/kg (Rattus norvegicus [3]): 2.7 | Activity (Rattus norvegicus [4]): Non-toxic | Ratio (Rattus norvegicus [5]): 1.3 | Activity (Rattus norvegicus [6]): Non-toxic | fold induction at 15 mg/kg (Rattus norvegicus [7]): 3.5 | Ratio (Rattus norvegicus [8]): 0.5 | Activity (Rattus norvegicus [9]): Non-toxic | fold induction at 336 h (CYP4F1): 1.6 | Activity (Rattus norvegicus [10]): Non-toxic
